Reference: ChEMBL document CHEMBL1201862, “PubChem BioAssay data set” (2004)
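Grown in 96-well plates, cells were treated for 48 hours with each compound at five concentrations. Insufficient inhibition: endpoint recorded as highest concentration tested. Abbreviation: GI50, concentration required for 50% inhibition of growth.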 Calls of active or inactive are those of the source. No stated cut-off is given here; in the data, active = GI50 up to about 1.1 µM and inactive = higher.

How the values were obtained:
Assay in all cases: inhibition of tumour cell growth, NCI panel, 48 h
[1] = tested on: 786-0
[2] = tested on: A549
[3] = tested on: ACHN
[4] = tested on: BT-549
[5] = tested on: CAKI-1
[6] = tested on: CCRF-CEM
[7] = tested on: COLO 205
[8] = tested on: DU-145
[9] = tested on: EKVX
[10] = tested on: HCC 2998
[11] = tested on: HCT-116
[12] = tested on: HCT-15
[13] = tested on: HL-60
[14] = tested on: HOP-62
[15] = tested on: HOP-92
[16] = tested on: HT-29
[17] = tested on: IGROV-1
[18] = tested on: K562
[19] = tested on: KM12
[20] = tested on: LOX IMVI
[21] = tested on: M14
[22] = tested on: MCF7
[23] = tested on: MDA-MB-435
[24] = tested on: NCI-H226
[25] = tested on: NCI-H23
[26] = tested on: NCI-H460
[27] = tested on: NCI-H522
[28] = tested on: NCI/ADR-RES
[29] = tested on: OVCAR-3
[30] = tested on: OVCAR-4
[31] = tested on: OVCAR-5
[32] = tested on: OVCAR-8
[33] = tested on: PC-3
[34] = tested on: RPMI-8226
[35] = tested on: RXF 393
[36] = tested on: SF-268
[37] = tested on: SF-295
[38] = tested on: SF-539
[39] = tested on: SK-MEL-28
[40] = tested on: SK-MEL-2
[41] = tested on: SK-MEL-5
[42] = tested on: SK-OV-3
[43] = tested on: SN12C
[44] = tested on: SNB-19
[45] = tested on: SNB-75
[46] = tested on: SR
[47] = tested on: SW-620
[48] = tested on: T47D
[49] = tested on: TK-10
[50] = tested on: U-251
[51] = tested on: UACC-257
[52] = tested on: UACC-62
[53] = tested on: UO-31
[54] = tested on: A498
[55] = tested on: MDA-MB-231
[56] = tested on: Malme-3M
[57] = tested on: MDA-N
[58] = tested on: MOLT-4

O=c1c2cc(I)ccc2nc(-c2cccs2)n1/N=C/c1ccccc1
GI50 [1]: > 100 µM (inactive) | GI50 [2]: > 100 µM (inactive) | GI50 [3]: > 100 µM (inactive) | GI50 [4]: > 100 µM (inactive) | GI50 [5]: > 100 µM (inactive) | GI50 [6]: > 100 µM (inactive) | GI50 [7]: > 100 µM (inactive) | GI50 [8]: > 100 µM (inactive) | GI50 [9]: > 100 µM (inactive) | GI50 [10]: > 100 µM (inactive) | GI50 [11]: > 100 µM (inactive) | GI50 [12]: > 100 µM | GI50 [13]: > 100 µM (inactive) | GI50 [14]: > 100 µM (inactive) | GI50 [15]: > 100 µM (inactive) | GI50 [16]: > 100 µM (inactive) | GI50 [17]: > 100 µM (inactive) | GI50 [18]: 7.18 µM (inactive) | GI50 [19]: > 100 µM (inactive) | GI50 [20]: > 100 µM (inactive) | GI50 [21]: > 100 µM (inactive) | GI50 [22]: > 100 µM (inactive) | GI50 [23]: > 100 µM (inactive) | GI50 [24]: > 100 µM (inactive) | GI50 [25]: > 100 µM (inactive) | GI50 [26]: > 100 µM (inactive) | GI50 [27]: > 100 µM (inactive) | GI50 [28]: > 100 µM (inactive) | GI50 [29]: > 100 µM (inactive) | GI50 [30]: > 100 µM (inactive) | GI50 [31]: > 100 µM (inactive) | GI50 [32]: > 100 µM (inactive) | GI50 [33]: > 100 µM (inactive) | GI50 [34]: > 100 µM (inactive) | GI50 [35]: > 100 µM (inactive) | GI50 [36]: > 100 µM (inactive) | GI50 [37]: > 100 µM (inactive) | GI50 [38]: > 100 µM (inactive) | GI50 [39]: > 100 µM (inactive) | GI50 [40]: 0.536 µM (active) | GI50 [41]: > 100 µM (inactive) | GI50 [42]: > 100 µM (inactive) | GI50 [43]: > 100 µM (inactive) | GI50 [44]: > 100 µM (inactive) | GI50 [45]: > 100 µM (inactive) | GI50 [46]: 10.1 µM (inactive) | GI50 [47]: > 100 µM (inactive) | GI50 [48]: 80.5 µM (inactive) | GI50 [49]: > 100 µM (inactive) | GI50 [50]: > 100 µM (inactive) | GI50 [51]: 79.1 µM (inactive) | GI50 [52]: > 100 µM (inactive) | GI50 [53]: > 100 µM (inactive)

CC[C@@]1(N(C)C)C(=O)OCc2c1cc1n(c2=O)Cc2cc3ccccc3nc2-1
GI50 [1]: 25.8 µM (inactive) | GI50 [54]: 42.7 µM (inactive) | GI50 [2]: 61 µM (inactive) | GI50 [3]: 20.3 µM (inactive) | GI50 [4]: 20.3 µM (inactive) | GI50 [5]: > 10 µM (inactive) | GI50 [6]: 18.5 µM (inactive) | GI50 [7]: > 100 µM (inactive) | GI50 [8]: 21.1 µM (inactive) | GI50 [9]: 45.9 µM (inactive) | GI50 [10]: 97.7 µM (inactive) | GI50 [11]: 33.1 µM (inactive) | GI50 [12]: 45.3 µM | GI50 [14]: 16.9 µM (inactive) | GI50 [15]: 19.1 µM (inactive) | GI50 [18]: > 100 µM (inactive) | GI50 [19]: > 100 µM (inactive) | GI50 [20]: 17.1 µM (inactive) | GI50 [21]: > 100 µM (inactive) | GI50 [22]: 32.1 µM (inactive) | GI50 [55]: 96.6 µM (inactive) | GI50 [23]: > 100 µM (inactive) | GI50 [56]: 20.2 µM (inactive) | GI50 [24]: 22.4 µM (inactive) | GI50 [25]: 16.6 µM (inactive) | GI50 [26]: 12.5 µM (inactive) | GI50 [27]: 12.7 µM (inactive) | GI50 [28]: 21.3 µM (inactive) | GI50 [29]: 27.8 µM (inactive) | GI50 [30]: 47.1 µM (inactive) | GI50 [31]: > 100 µM (inactive) | GI50 [32]: 16.9 µM (inactive) | GI50 [33]: 58.3 µM (inactive) | GI50 [34]: 31.3 µM (inactive) | GI50 [35]: 13.7 µM (inactive) | GI50 [36]: 17.3 µM (inactive) | GI50 [37]: 16.1 µM (inactive) | GI50 [39]: > 100 µM (inactive) | GI50 [40]: 26.4 µM (inactive) | GI50 [41]: 69.3 µM (inactive) | GI50 [42]: 18.7 µM (inactive) | GI50 [44]: 29.4 µM (inactive) | GI50 [45]: 12.8 µM (inactive) | GI50 [47]: 32.1 µM (inactive) | GI50 [48]: 18.9 µM (inactive) | GI50 [49]: 48.2 µM (inactive) | GI50 [50]: 29.2 µM (inactive) | GI50 [51]: > 100 µM (inactive) | GI50 [52]: 22.1 µM (inactive) | GI50 [53]: 25.4 µM (inactive)

Cc1ccc(/N=N/N(C)C(=O)C(C)N)cc1 (configuration not stated)
GI50 [1]: > 100 µM (inactive) | GI50 [3]: > 100 µM (inactive) | GI50 [4]: > 100 µM (inactive) | GI50 [5]: > 100 µM (inactive) | GI50 [6]: > 100 µM (inactive) | GI50 [7]: > 100 µM (inactive) | GI50 [8]: > 100 µM (inactive) | GI50 [9]: > 100 µM (inactive) | GI50 [10]: > 100 µM (inactive) | GI50 [11]: > 100 µM (inactive) | GI50 [12]: > 100 µM | GI50 [13]: > 100 µM (inactive) | GI50 [14]: > 100 µM (inactive) | GI50 [15]: > 100 µM (inactive) | GI50 [16]: > 100 µM (inactive) | GI50 [17]: > 100 µM (inactive) | GI50 [18]: > 100 µM (inactive) | GI50 [19]: > 100 µM (inactive) | GI50 [20]: > 100 µM (inactive) | GI50 [21]: > 100 µM (inactive) | GI50 [22]: > 100 µM (inactive) | GI50 [23]: > 100 µM (inactive) | GI50 [57]: > 100 µM (inactive) | GI50 [58]: > 100 µM (inactive) | GI50 [56]: > 100 µM (inactive) | GI50 [24]: > 100 µM (inactive) | GI50 [25]: > 100 µM (inactive) | GI50 [26]: > 100 µM (inactive) | GI50 [27]: 60.1 µM (inactive) | GI50 [28]: > 100 µM (inactive) | GI50 [29]: > 100 µM (inactive) | GI50 [30]: > 100 µM (inactive) | GI50 [31]: > 100 µM (inactive) | GI50 [32]: > 100 µM (inactive) | GI50 [33]: > 100 µM (inactive) | GI50 [34]: 16.1 µM (inactive) | GI50 [35]: > 100 µM (inactive) | GI50 [36]: > 100 µM (inactive) | GI50 [37]: > 100 µM (inactive) | GI50 [38]: > 100 µM (inactive) | GI50 [39]: > 100 µM (inactive) | GI50 [40]: > 100 µM (inactive) | GI50 [41]: > 100 µM (inactive) | GI50 [43]: > 100 µM (inactive) | GI50 [44]: > 100 µM (inactive) | GI50 [45]: > 100 µM (inactive) | GI50 [46]: 26.9 µM (inactive) | GI50 [47]: 8.53 µM (inactive) | GI50 [48]: > 100 µM (inactive) | GI50 [49]: > 100 µM (inactive) | GI50 [50]: > 100 µM (inactive) | GI50 [51]: > 100 µM (inactive) | GI50 [52]: > 100 µM (inactive) | GI50 [53]: 34.4 µM (inactive)
